# In patent publication US4633014A, “Substituted 3-hydrazinopropionates” (priority 1983, dated 1986):
# Structures can show the parent of a compound that is named as a salt.
# Assays:
# [1] = test system: arrhythmia induced by an intravenous administration of calcium chloride; test: Antiarrhythmic activity on a model of arrhythmia induced by intravenous calcium chloride (antagonism to calcium) in mice; assay type: in vivo; conditions: white mice, 20-40 minutes before
# Protocol: The specific (antiarrhythmic) effect and acute toxicity were studied.
# The antiarrhythmic activity of the compounds according to the present invention was studied on a model of arrhythmia induced by an intravenous administration of calcium chloride. In experiments on white mice of both sexes with a mass of 18-25 g narcotized by urethane (1,200 mg/kg intraperitoneally) ECG in the second standard lead was recorded. A 2% solution of calcium chloride was introduced into the tail vein at a constant rate (0.01 ml for 2 sec). The dose of calcium chloride causing arrhythmia and the dose causing the heart arrest were determined. In the test groups the test compounds were administered intraperitoneally 20-40 minutes before the beginning of the experiment.
# white mice = test: in vivo
# Protocol: (§1) The study of the effect provided by the compounds according to the present invention on the cardio-vascular system was carried out in experiments on white mice. The specific (antiarrhythmic) effect and acute toxicity were studied.
# (§2) The acute toxicity of the compounds according to the present invention was determined in experiments on white mice with a mass of 20-25 g. The test compounds were administered intraperitoneally in the form of aqueous solutions or suspensions in Twin-80. Observation over the test animals was effected for 10 days.
# in vivo = conditions: mouse, in vivo, ip
# Protocol: as §1, §2
# [2] = white mice, intraperitoneal, relative to quinidine
SMILES,Dose of calcium chloride causing arrythmia in animals under experiment ([1]; intraperitoneal dose 5 mg/kg),Dose of calcium chloride causing death in animals under experiment ([1]; intraperitoneal dose 5 mg/kg),Dose of calcium chloride causing arrythmia in animals under experiment ([1]; intraperitoneal dose 15 mg/kg),Dose of calcium chloride causing death in animals under experiment ([1]; intraperitoneal dose 15 mg/kg),Relative toxisity to quinidine (white mice; [2]),LD50 at 240 h (in vivo) [mg/kg],"Relative toxisity to quinidine (white mice; mouse, in vivo, ip, 14400 min)"
COC(=O)C(C)CN(C(=O)c1ccc(Br)cc1)N(C)C (stereo not drawn) [I-41],"90,6 mg/kg","110,0 mg/kg","102,5 mg/kg","122,0 mg/kg","15,5",2430,
"CCOC(=O)CCN(C(C)=O)N(C)C [I-42, 3-(2,2-dimethyl-1-acetylhydrazino)ethylpropionate]","87,5 mg/kg","112,0 mg/kg","103,0 mg/kg","115,0 mg/kg",,2380,"15,2"
"CCCCCC(=O)N(CCC(=O)OCC)N(C)C [I-43, 3-(2,2-dimethyl-1-hexanoylhydrazino)ethylpropionate]","94,0 mg/kg","105,0 mg/kg","108,5 mg/kg","120,3 mg/kg",,1460,"9,3"
"CCOC(=O)CCN(C(=O)c1ccccc1)N(C)C [I-44, 3-(2,2-dimethyl-1-benzoylhydrazino)ethylpropionate]","101,0 mg/kg","120,0 mg/kg","98,5 mg/kg","126,0 mg/kg",,1650,"10,5"
"CCOC(=O)CCN(C(=O)c1ccccc1F)N(C)C [I-45, 3-/2,2-dimethyl-1-(2'-fluorobenzoyl)-hydrazino/ethylpropionate]","95,0 mg/kg","112,5 mg/kg","102,8 mg/kg","125,0 mg/kg",,1480,"9,4"
"CCOC(=O)CCN(C(=O)c1ccc(Br)cc1)N(C)C [I-46, 3-/2,2-dimethyl-1-(4'-bromobenzoyl)hydrazino/ethylpropionate]","98,0 mg/kg","105,0 mg/kg","100,0 mg/kg","118,3 mg/kg",,1500,"9,6"
"CC(=O)N(CCC(N)=O)N(C)C [I-47, 3-(2,2-dimethyl-1-acetylhydrazino)propionamide]",103 mg/kg,118 mg/kg,108 mg/kg,125 mg/kg,,> 3000,"> 19,2"
"CCCC(=O)N(CCC(N)=O)N(C)C [I-48, 3-(2,2-dimethyl-1-butyrylhydrazino)propionamide]",88 mg/kg,"101,8 mg/kg","95,3 mg/kg",109 mg/kg,,1700,"10,9"
"CCCCCC(=O)N(CCC(N)=O)N(C)C [I-49, 3-(2,2-dimethyl-1-hexanoylhydrazino)propionamide]","101,3 mg/kg","120,5 mg/kg","108,6 mg/kg","136,8 mg/kg",,960,"6,1"
"CCCCCCCCCCCCCCCCCC(=O)N(CCC(N)=O)N(C)C [I-50, 3-(2,2-dimethyl-1-octadecanoylhydrazino)propionamide]","102,4 mg/kg","118,0 mg/kg","118,6 mg/kg","142,5 mg/kg",,> 3000,"> 19,2"
"CN(C)N(CCC(N)=O)C(=O)c1ccccc1 [I-51, 3-(2,2-dimethyl-1-benzoylhydrazino)propionamide]","88,7 mg/kg","105,5 mg/kg","93,5 mg/kg","112,0 mg/kg",,3150,"20,1"
"CN(C)N(CCC(N)=O)C(=O)CCO [I-52, 3-(2,2-dimethyl-1-γ-hydroxypropanoylhydrazino)propionamide]",93 mg/kg,"112,0 mg/kg","97,6 mg/kg","123,6 mg/kg",,> 3000,"> 19,2"
"COC(=O)N(CCC(N)=O)N(C)C [I-53, 3-(2,2-dimethyl-1methoxycarbonylhydrazino)propionamide]","98,5 mg/kg","132,0 mg/kg","121,0 mg/kg","138,5 mg/kg","12,0",1880,
"CN(C)N(CCC#N)C(=O)c1ccccc1 [I-54, 3-(2,2-dimethyl-1-benzoylhydrazino)propionitrile]","108,3 mg/kg","130,0 mg/kg","102,5 mg/kg","133,0 mg/kg",,1030,"6,6"
CNC(=O)N(C(CC(=O)OC)C(=O)OC)N(C)C (stereo not drawn) [I-55],"88,7 mg/kg","112,5 mg/kg","111,5 mg/kg","135,0 mg/kg",,2300,"14,7"
COC(=O)CC(C(=O)OC)N(C(=O)Nc1ccccc1)N(C)C (stereo not drawn) [I-56],"92,4 mg/kg","108,5 mg/kg","102,0 mg/kg","128,0 mg/kg",,3200,"20,5"
"COC(=O)CC(C(=O)OC)N(C(=O)NCCCCCCNC(=O)N(C(CC(=O)OC)C(=O)OC)N(C)C)N(C)C (stereo not drawn) [I-57, 3-(2,2-dimethyl-1-/ε-(2-dimethylamino-2-dimethylsuccinato-2'-ylureido-1-yl)hexylcarbamoyl/hydrazino)-2-methoxycarbonylmethylpropionate]","103,5 mg/kg","115,0 mg/kg","132,6 mg/kg","150,0 mg/kg",,> 3000,"> 19,2"
"COC(=O)CC(C(=O)OC)N(C(=O)c1ccccc1)N(C)C (stereo not drawn) [I-58, 3-(2,2-dimethyl-1-benzoylhydrazino)-3-methoxycarbonyl-methylpropionate]","97,0 mg/kg","112,0 mg/kg","100,5 mg/kg","118,5 mg/kg",,> 3000,"> 19,2"
"CNC(=S)N(CCC(=O)O)N(C)C [I-59, Sodium salt of 3-(2,2-dimethyl-1-methylthiocarbamoylhydrazino)propionate]","93,4 mg/kg","108,6 mg/kg","112,5 mg/kg","130,0 mg/kg",,1800,"11,5"
"CCCCCCCCOC(=O)CCN(C(=S)Nc1ccccc1)N(C)C [I-60, 3-(2,2-dimethyl-1-phenylthiocarbamoylhydrazino)octylpropionate]","90,8 mg/kg","132,5 mg/kg","107,5 mg/kg","130,8 mg/kg",,2420,"15,5"
"CN(C)N(CCC#N)C(=O)Nc1ccccc1 [I-61, 3-(2,2-dimethyl-1-phenylcarbamoylhydrazino)propionitrile]","105,0 mg/kg","128,8 mg/kg","102,6 mg/kg","130,0 mg/kg",,1250,"8,0"
